Test results from patent US20240246972A1, “AZAINDOLE ROCK INHIBITORS” (priority 2022, published 2024).
Values after ≈ are worked out from the molar mass of the structure shown. Blank lines part the entries; values can stand above or below the compound they belong to.

Assays:
[1] = target: ROCK1 (Homo sapiens (Human), UniProt Q13464); test: ROCK1 inhibition assay (HotSpot kit, 33P-ATP); assay type: biochemical; details: 10 μM ATP
[2] = target: ROCK2 (Homo sapiens (Human), UniProt O75116); test: ROCK2 inhibition assay (HotSpot kit, 33P-ATP); assay type: biochemical; details: 10 μM ATP
[3] = target: PRKX (Homo sapiens (Human), UniProt P51817); test: PRKX inhibition assay (HotSpot kit, 33P-ATP); assay type: biochemical; details: Table 2B; 10 μM ATP; Compound 1 is geometric mean of multiple experiments
Protocol: (§1) Compounds as a powder were dissolved in dimethyl sulfoxide to make a 10 mM stock. […] The HotSpot kit employing ^33P-ATP was used with reactions conducted at 10 μM ATP for each tested enzyme. The percent activity relative to DMSO controls for each concentration was then fitted to a curve using GraphPad Prism to determine the IC50. […] Each experiment was run in the same lab with this procedure.

[4] = target: PKA (Homo sapiens (Human), UniProt P17612); test: PKA inhibition assay (HotSpot kit, 33P-ATP); assay type: biochemical; details: Table 2B; 10 μM ATP; Compound 1 is geometric mean of multiple experiments
Protocol: as §1

[5] = system: P-gp (MDR1); test: MDCK-MDR1 efflux assay, Experimental Procedure 1; assay type: in vitro ADME; details: dog, Table 3A, pH 7.4
Protocol: MDCK-MDR1 cells grown in tissue culture flasks were trypsinized, suspended in medium, and the suspensions were applied to wells of a Millipore 96 well plate. The cells were allowed to grow and differentiate for five days, feeding at 2-day intervals. For Apical to Basolateral (A→B) permeability, the test article was added to the apical (A) side and amount of permeation was determined on the basolateral (B) side; for Basolateral to Apical (B→A) permeability, the test article was added to the B side and the amount of permeation was determined on the A side. […] Following centrifugation, the supernatant for donor and receiver side samples were analyzed by LC-MS/MS. Data was expressed as permeability (Papp):Papp=(dQ/dt)/(C0A) where dQ/dt is rate of permeation, C0 is initial concentration of test article, and A is the area of monolayer. In bidirectional permeability studies, the Efflux Ratio (Re) was calculated: [formula]

[6] = system: P-gp (MDR1); test: MDCK-MDR1 efflux assay, Experimental Procedure 2; assay type: in vitro ADME; details: dog, Table 3B, pH 7.4
[7] = Kinetic solubility in PBS pH 7.4; assay type: physicochemical; details: aqueous buffer, kinetic from dmso stock, PBS pH 7.4, 25° C.
Protocol: The assay was performed in duplicate.

[8] = 24 hour mouse pharmacokinetics; assay type: in vivo, B6SJLF1/J mice; details: for AUC(0-inf) / AUC(0-t) / Cmax / half-life / Tmax: B6SJLF1/J, plasma
Protocol: Groups 2, 3, 4, 6, and 8: Test article was dissolved in a minimal amount of DMSO (Groups 2, 4, 6, 8: 40-50 μL, Group 3: 100 μL), 0.5% methylcellulose was added to final volume, then solution was sonicated for 2 minutes.
Group 7: Test article was dissolved in 100 μL DMSO, saline was added to final volume, then solution was sonicated for 2 minutes.
Groups 1, 5: The test article was administered as a single dose via slow bolus intravenous administration into a lateral tail vein, with a 27G needle.
Groups 2, 4, 6, 7, 8: The test article was administered as a single dose directly to the stomach by oral gavage.
Group 3: The test article was administered as a single dose in two parts with an approximate 1-2-minute rest between due to volume administered.
Approximately 150 μL of blood was collected by tail nick for the first time point and then the maximal volume by cardiac stick for the second, terminal time point in each mouse. The plasma was spun and separated within 30 minutes of collection and stored frozen at −20° C. until shipment.
Prior to the terminal blood collection, CSF was collected. […] The resulting data is shown in Tables 13, 14, 15, 16 and 17 below.

[9] = 24 hour rat pharmacokinetics; assay type: in vivo, Sprague-dawley rats; details: male
[10] = mouse, in vivo, po, 20 mg/kg
[11] = Table 2B, Compound 1 is geometric mean of multiple experiments
[12] = Sprague-Dawley, in vivo, IV 3 mg/kg
[13] = Sprague-Dawley, in vivo, PO 10 mg/kg

ROCK2, sequence (O75116 whole entry): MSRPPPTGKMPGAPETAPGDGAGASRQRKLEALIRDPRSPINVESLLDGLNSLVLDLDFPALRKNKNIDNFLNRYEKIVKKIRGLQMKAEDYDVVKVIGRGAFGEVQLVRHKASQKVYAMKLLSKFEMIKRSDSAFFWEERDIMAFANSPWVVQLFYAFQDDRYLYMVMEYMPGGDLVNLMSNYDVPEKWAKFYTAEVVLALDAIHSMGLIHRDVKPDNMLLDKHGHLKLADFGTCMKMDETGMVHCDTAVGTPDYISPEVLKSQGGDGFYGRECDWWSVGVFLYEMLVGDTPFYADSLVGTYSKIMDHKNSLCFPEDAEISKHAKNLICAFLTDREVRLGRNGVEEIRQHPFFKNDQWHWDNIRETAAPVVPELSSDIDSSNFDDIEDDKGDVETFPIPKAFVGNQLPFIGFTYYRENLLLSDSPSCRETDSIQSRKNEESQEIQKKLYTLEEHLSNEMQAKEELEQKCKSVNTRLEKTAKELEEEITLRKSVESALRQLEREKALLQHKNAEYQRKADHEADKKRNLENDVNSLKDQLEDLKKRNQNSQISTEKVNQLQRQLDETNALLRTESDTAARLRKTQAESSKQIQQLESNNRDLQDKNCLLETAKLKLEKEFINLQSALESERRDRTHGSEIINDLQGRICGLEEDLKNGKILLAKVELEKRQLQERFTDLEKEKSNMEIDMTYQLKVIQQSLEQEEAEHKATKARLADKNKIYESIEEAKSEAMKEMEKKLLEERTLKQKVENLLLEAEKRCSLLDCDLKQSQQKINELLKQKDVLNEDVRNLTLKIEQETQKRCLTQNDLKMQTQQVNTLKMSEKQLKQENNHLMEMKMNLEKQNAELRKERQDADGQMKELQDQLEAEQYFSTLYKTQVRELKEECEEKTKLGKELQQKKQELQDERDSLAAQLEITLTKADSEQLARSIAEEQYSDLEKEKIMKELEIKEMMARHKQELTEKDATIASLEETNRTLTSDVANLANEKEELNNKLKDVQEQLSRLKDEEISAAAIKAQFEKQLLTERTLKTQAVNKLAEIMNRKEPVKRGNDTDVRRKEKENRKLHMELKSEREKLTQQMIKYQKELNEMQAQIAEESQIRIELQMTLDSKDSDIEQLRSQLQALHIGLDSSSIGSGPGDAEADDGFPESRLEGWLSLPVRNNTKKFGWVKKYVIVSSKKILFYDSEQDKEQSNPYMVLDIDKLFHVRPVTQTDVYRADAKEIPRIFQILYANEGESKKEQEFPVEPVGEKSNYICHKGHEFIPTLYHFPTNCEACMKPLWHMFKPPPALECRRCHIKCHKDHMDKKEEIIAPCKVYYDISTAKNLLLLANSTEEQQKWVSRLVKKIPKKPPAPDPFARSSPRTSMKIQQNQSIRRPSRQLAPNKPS
ROCK1, sequence (Q13464 whole entry): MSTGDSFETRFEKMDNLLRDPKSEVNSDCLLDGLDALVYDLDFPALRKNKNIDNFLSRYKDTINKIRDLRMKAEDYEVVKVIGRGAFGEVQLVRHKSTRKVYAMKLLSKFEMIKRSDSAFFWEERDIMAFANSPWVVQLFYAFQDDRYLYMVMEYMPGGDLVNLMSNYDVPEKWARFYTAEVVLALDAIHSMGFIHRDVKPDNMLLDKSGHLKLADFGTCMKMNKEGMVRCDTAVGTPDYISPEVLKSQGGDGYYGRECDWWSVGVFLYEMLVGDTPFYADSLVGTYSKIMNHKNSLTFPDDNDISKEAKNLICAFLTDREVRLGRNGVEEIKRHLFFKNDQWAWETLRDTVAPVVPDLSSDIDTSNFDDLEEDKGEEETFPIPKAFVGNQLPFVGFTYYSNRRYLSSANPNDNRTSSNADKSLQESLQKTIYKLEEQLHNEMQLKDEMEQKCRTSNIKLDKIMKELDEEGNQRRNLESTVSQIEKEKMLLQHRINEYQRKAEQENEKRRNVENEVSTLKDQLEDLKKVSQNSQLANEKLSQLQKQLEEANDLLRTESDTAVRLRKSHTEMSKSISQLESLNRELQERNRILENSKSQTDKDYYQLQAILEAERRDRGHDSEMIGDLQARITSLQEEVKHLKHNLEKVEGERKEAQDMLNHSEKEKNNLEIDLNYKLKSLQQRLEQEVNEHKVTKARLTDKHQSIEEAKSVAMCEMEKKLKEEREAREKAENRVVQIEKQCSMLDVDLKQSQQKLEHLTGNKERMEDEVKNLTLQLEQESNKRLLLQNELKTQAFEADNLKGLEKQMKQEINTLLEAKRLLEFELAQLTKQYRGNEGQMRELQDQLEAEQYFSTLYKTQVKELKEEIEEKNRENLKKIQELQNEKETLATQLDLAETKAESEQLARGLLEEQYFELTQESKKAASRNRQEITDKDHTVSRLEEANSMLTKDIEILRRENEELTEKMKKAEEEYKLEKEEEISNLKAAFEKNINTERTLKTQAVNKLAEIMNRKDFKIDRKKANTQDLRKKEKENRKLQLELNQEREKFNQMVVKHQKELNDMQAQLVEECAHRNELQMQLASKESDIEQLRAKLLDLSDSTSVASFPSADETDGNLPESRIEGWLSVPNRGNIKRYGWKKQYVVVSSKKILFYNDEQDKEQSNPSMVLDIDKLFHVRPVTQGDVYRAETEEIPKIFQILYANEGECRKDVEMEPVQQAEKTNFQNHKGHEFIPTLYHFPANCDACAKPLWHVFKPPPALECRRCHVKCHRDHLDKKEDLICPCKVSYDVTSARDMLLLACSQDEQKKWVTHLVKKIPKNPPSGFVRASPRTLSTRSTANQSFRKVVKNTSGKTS
PRKX, sequence (P51817 whole entry): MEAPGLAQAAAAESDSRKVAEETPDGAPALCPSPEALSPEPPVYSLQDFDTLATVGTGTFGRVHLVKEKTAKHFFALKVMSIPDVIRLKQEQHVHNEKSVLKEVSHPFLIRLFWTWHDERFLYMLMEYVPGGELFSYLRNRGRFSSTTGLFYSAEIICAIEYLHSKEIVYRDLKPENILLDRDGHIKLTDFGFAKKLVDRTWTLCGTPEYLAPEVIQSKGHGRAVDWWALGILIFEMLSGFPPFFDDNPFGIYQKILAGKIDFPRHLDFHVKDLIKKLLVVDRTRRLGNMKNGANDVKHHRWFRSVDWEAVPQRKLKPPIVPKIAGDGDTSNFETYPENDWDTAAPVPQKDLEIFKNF

- IC50 ([1]; Table 2A): > 1000 nM
- IC50 ([2]; Table 2A): 587 nM
- IC50 [3]: 376 nM
- IC50 [4]: 1400 nM
- efflux ratio at 2 h [5]: 256
SMILES: Cc1[nH]ncc1-c1ccc2cc(C(=O)NCc3c(Cl)cccc3OC3COC3)[nH]c2n1 [Comparator 3, N-(2-chloro-6-(oxetan-3-yloxy)benzyl)-6-(5-methyl-1H-pyrazol-4-yl)-1H-pyrrolo[2,3-b]pyridine-2-carboxamide, reference compound]

SMILES: COc1cccc(CNC(=O)c2cc3ccc(-c4cn[nH]c4)nc3[nH]2)c1 [Comparator 6, N-(3-methoxybenzyl)-6-(1H-pyrazol-4-yl)-1H-pyrrolo[2,3-b]pyridine-2-carboxamide, reference compound]
- IC50 [1, 11]: 10.2 nM
- IC50 [2, 11]: 0.96 nM
- IC50 [3]: 165 nM

SMILES: Cn1c(C(=O)NCc2ccccc2F)cc2ccc(-c3cn[nH]c3)nc21 [Compound 1, N-(2-fluorobenzyl)-1-methyl-6-(1H-pyrazol-4-yl)-1H-pyrrolo[2,3-b]pyridine-2-carboxamide]
- IC50 ([1]; Table 2A): 16.4 nM
- IC50 [1, 11]: 30.3 nM
- IC50 ([2]; Table 2A): 2.3 nM
- IC50 [2, 11]: 2.7 nM
- IC50 [3]: 31.4 nM
- IC50 [4]: 238 nM
- efflux ratio at 2 h [5]: 1.46
- efflux ratio at 2 h, 1 µM [6]: 0.8
- solubility kinetic at 2 h [7]: 0.64 µM (≈ 0.224 µg/mL)
- AUC(0-inf) ([8]; IV 3 mg/kg, male): 10200 ng·h/mL
- AUC(0-t) ([8]; IV 3 mg/kg, male): 10100 ng·h/mL
- Cmax ([8]; IV 3 mg/kg, male): 12200 ng/mL
- half-life ([8]; IV 3 mg/kg, male): 0.987 h
- AUC(0-t) ([8]; PO 10 mg/kg, female): 5670 ng·h/mL
- Cmax ([8]; PO 10 mg/kg, female): 1110 ng/mL
- Tmax ([8]; PO 10 mg/kg, female): 1 h
- AUC(0-inf) ([8]; PO 10 mg/kg, male): 5750 ng·h/mL
- AUC(0-t) ([8]; PO 10 mg/kg, male): 5350 ng·h/mL
- Cmax ([8]; PO 10 mg/kg, male): 1040 ng/mL
- Tmax ([8]; PO 10 mg/kg, male): 1 h
- half-life ([8]; PO 10 mg/kg, male): 2.72 h
- AUC(0-inf) ([8]; PO 100 mg/kg, male): 46000 ng·h/mL
- AUC(0-t) ([8]; PO 100 mg/kg, male): 44100 ng·h/mL
- Cmax ([8]; PO 100 mg/kg, male): 4070 ng/mL
- Tmax ([8]; PO 100 mg/kg, male): 8 h
- half-life ([8]; PO 100 mg/kg, male): 4.47 h
- AUC0-t/D ([8]; IV 3 mg/kg, male): 3380 (h*ng/mL)/(mg/kg)
- Tlast ([8]; IV 3 mg/kg, male): 8 h
- AUC0-t/D ([8]; PO 10 mg/kg, female): 567 (h*ng/mL)/(mg/kg)
- Tlast ([8]; PO 10 mg/kg, female): 24 h
- AUC0-t/D ([8]; PO 10 mg/kg, male): 535 (h*ng/mL)/(mg/kg)
- Tlast ([8]; PO 10 mg/kg, male): 12 h
- Ratio to 10 mg/kg Dose Level, AUC0-t ([8]; PO 100 mg/kg vs 10 mg/kg, male): 8.24
- Ratio to 10 mg/kg Dose Level, AUC0-∞ ([8]; PO 100 mg/kg vs 10 mg/kg, male): 8.00
- Ratio to 10 mg/kg Dose Level, Cmax ([8]; PO 100 mg/kg vs 10 mg/kg, male): 3.91
- AUC0-t/D ([8]; PO 100 mg/kg, male): 441 (h*ng/mL)/(mg/kg)
- Tlast ([8]; PO 100 mg/kg, male): 24 h
- AUC0-t/D ([9]; IV 3 mg/kg): 1541 (h*ng/mL)/(mg/kg)
- Tlast ([9]; IV 3 mg/kg): 24 h
- AUC0-t/D ([9]; PO 10 mg/kg): 261 (h*ng/mL)/(mg/kg)
- Tlast ([9]; PO 10 mg/kg): 24 h
- AUC(0-inf) [9, 12]: 4650 ng·h/mL
- AUC(0-t) [9, 12]: 4620 ng·h/mL
- Cmax [9, 12]: 5540 ng/mL
- half-life [9, 12]: 5.33 h
- AUC(0-t) [9, 13]: 2610 ng·h/mL
- Cmax [9, 13]: 409 ng/mL
- Tmax [9, 13]: 2.67 h
- half-life [9, 13]: 3.67 h
- AUC(0-inf) ([9]; Sprague-Dawley, plasma, PO 10 mg/kg): 2660 ng·h/mL
- mortality and adverse events [10]: no animals died or had adverse events
- plasma level in 24 hours [10]: below the detection limit

- efflux ratio at 2 h [5]: 133
SMILES: Cc1[nH]ncc1-c1ccc2cc(C(=O)NCc3c(Cl)cccc3C3(O)CC3)[nH]c2n1 [Compound 6, N-(2-chloro-6-(1-hydroxycyclopropyl)benzyl)-6-(5-methyl-1H-pyrazol-4-yl)-1H-pyrrolo[2,3-b]pyridine-2-carboxamide]

SMILES: O=C(NCc1ccccc1F)c1cc2ccc(-c3cn[nH]c3C(F)(F)F)nc2[nH]1 [Compound 11, N-[(2-Fluorophenyl)methyl]-6-[3-(trifluoromethyl)-2H-pyrazol-4-yl]-1H-pyrrolo[2,3-b]pyridine-2-carboxamide]
- IC50 [1, 11]: > 1000 nM
- IC50 [2, 11]: 1370 nM

- efflux ratio at 2 h [5]: 28.4
SMILES: C[C@H]1O[C@@H](O[C@H]2[C@@H](O)C[C@H](O[C@H]3[C@@H](O)C[C@H](O[C@H]4CC[C@@]5(C)[C@H](CC[C@@H]6[C@@H]5C[C@@H](O)[C@]5(C)[C@@H](C7=CC(=O)OC7)CC[C@]65O)C4)O[C@@H]3C)O[C@@H]2C)C[C@H](O)[C@@H]1O [Digoxin, reference compound]

- solubility kinetic at 2 h [7]: 13.3 µM (≈ 4.19 µg/mL)
SMILES: CC(=O)[C@H]1CC[C@H]2[C@@H]3CCC4=CC(=O)CC[C@]4(C)[C@H]3CC[C@]12C [Progesterone, reference compound]
